Ten compounds from patent publication US11548890B1, “HPK1 antagonists and uses thereof” (Nimbus Saturn, Inc., priority 2019, dated 2023) can be followed below.

The assay addresses HPK1 (Homo sapiens (Human), UniProt Q92918). As to the kind of experiment: HPK1 biochemical enzyme assay (microfluidic mobility shift assay). Conditions: ATP 1 mM final concentration; 1.5 nM HPK1; 30 min preincubation; Caliper EZ Reader; read-out: HPK1 1000UMATP caliper IC50. As for the experimental part: HPK1 biochemical enzyme assay: HPK1 enzyme inhibition was measured using a microfluidic mobility shift assay. […] Test compounds were titrated in ten point curves (top final assay concentration 3 μM), and preincubated with enzyme/substrate mix for 30 min prior to initiation of the reaction by addition of ATP (1 mM final concentration) and substrate (1 μM final concentration; Carna Biosciences) diluted in assay buffer supplemented by MgCl2 (final assay concentration of 5 mM). Following 60 min incubation at RT, the reaction was terminated by addition of 60 μl/well termination buffer (Carna Biosciences) and signal determination using a Caliper EZ Reader (Perkin Elmer, UK).
The compound numbers correspond to the compound numbers in Table 1.

Chain of HPK1 (Q92918 whole entry): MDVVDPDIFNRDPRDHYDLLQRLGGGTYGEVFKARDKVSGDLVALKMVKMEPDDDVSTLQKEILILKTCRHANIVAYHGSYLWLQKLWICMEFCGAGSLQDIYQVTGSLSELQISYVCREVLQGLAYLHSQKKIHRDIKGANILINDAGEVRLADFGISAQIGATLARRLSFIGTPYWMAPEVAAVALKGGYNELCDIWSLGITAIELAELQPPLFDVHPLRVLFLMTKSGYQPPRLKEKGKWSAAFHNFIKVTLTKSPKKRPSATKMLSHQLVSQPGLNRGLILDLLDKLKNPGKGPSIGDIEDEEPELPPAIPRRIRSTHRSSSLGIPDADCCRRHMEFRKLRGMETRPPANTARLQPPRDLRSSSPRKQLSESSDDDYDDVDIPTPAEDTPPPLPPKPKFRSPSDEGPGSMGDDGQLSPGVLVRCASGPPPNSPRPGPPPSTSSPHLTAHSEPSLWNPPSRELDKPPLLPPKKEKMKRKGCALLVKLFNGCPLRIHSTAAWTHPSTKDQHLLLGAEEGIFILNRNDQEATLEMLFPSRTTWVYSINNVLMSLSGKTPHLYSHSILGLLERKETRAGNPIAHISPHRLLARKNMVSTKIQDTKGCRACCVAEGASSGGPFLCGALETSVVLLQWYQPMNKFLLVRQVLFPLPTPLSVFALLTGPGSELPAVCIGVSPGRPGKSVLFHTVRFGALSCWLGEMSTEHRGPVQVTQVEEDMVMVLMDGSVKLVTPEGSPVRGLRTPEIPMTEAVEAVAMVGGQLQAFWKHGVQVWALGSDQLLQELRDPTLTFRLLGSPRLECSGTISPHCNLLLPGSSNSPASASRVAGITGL

A word on the IC50: it is the midpoint of a concentration-inhibition curve. In the case of “7-((6-((dimethylamino)methyl)-4-(tetrahydrofuran-2-yl)pyridin-2-yl)amino)-4-(7-fluoroimidazo[1,2-a]pyridin-3-yl)isoindolin-1-one [I-852]”, the IC50 was under 100 nM.

On to `CC(C)(N)[C@H]1CN(c2ccc(Nc3ccc(-c4cnc5cc(F)ccn45)c4c3C(=O)NC4)nc2)CCO1` (single isomer, unassigned) [I-671], for which the IC50 was under 100 nM.

As for `Cn1ccc2c(-c3ncc(Nc4ccc(N5CCC(O)CC5)cn4)c4c3CNC4=O)ccnc21` [I-139, 7-[[5-(4-hydroxy-1-piperidyl)-2-pyridyl]amino]-4-(1-methylpyrrolo [2,3-b]pyridin-4-yl)-2,3-dihydropy-rrolo[3,4-c]pyridin-1-one], the half-maximal inhibitory concentration (IC50) was under 100 nM.

Regarding `Cc1ccn2c(-c3ccc(Nc4ccc(N5CCOCC5)cn4)c4c3CNC4=O)cnc2c1` [I-145, 4-(7-methylimidazo [1,2-a]pyridin-3-yl)-7-[(5-morpholino-2-pyridyl)amino] isoindolin-1-one], the IC50 is under 100 nM.

As to `Cn1ccc2c(-c3ncc(Nc4ccc(N5CCOCC5)cn4)c4c3CNC4=O)cccc21` [I-221, 4-(1-methylindol-4-yl)-7-[(5-morpholino-2-pyridyl)amino]-2,3-dihydropy-rrolo[3,4-c]pyridin-1-one], the IC50 was under 100 nM.

In the case of `O=C1NCc2c(-c3cnc4cc(F)ccn34)ccc(Nc3ccc(N4CCO[C@@H](CNC5CC5)C4)cn3)c21` [I-495, 7-[[5-[(2S)-2-[(cyclopropyl-amino)methyl]morpholin-4-yl]-2-pyridyl]amino]-4-(7-fluoroimidazo [1,2-a]pyridin-3-yl)isoindolin-1-one], the IC50 is under 100 nM.

With `C[C@H](c1ccc(Nc2ccc(-c3cnc4cc(F)ccn34)c3c2C(=O)NC3)nc1)N(C)C` [I-521, (R)-7-((5-(1-(dimethylamino)-ethyl)pyridin-2-yl)amino)-4-(7-fluoroimidazo [1,2-a]pyridin-3-yl)isoindolin-1-one], the IC50 is under 100 nM.

For `CO[C@H]1CC[C@H](c2ccc(Nc3ccc(-c4cnc5cc(F)ccn45)c4c3C(=O)NC4)nc2CN(C)C)C1` [I-793, 7-((6-((dimethylamino)-methyl)-5-((1S,3S)-3-methoxycyclo-pentyl)pyridin-2-yl)amino)-4-(7-fluoroimidazo [1,2-a]pyridin-3-yl)isoindolin-1-one], the IC50 is under 100 nM.

Regarding `CN(C)Cc1nc(Nc2ccc(-c3cnc4cc(F)ccn34)c3c2C(=O)NC3)ccc1OCC(F)F` [I-835, 7-((5-(2,2-difluoroethoxy)-6-((dimethylamino)methyl)pyridin-2-yl)amino)-4-(7-fluoroimidazo[1,2-a]pyridin-3-yl)isoindolin-1-one], the half-maximal inhibitory concentration (IC50) was under 100 nM.

“(R)-7-((5-(2- (methoxymeth- yl)morpholino) pyridin-2- yl)amino)-4- (7- methylimidazo [1,2- a]pyrimidin-3- yl)isoindolin- 1-one [I-628]”: the IC50 was under 100 nM.
